Measurements published in paper PMC12292504, “Improving Cofactor Promiscuity of HMG-CoA Reductase from Ruegeria pomeroyi Through Rational Design” (Biomolecules, 2025).

Target: T1, rpHMGR (Ruegeria pomeroyi, UniProt Q5LL64, D154K)
T1 construct: gene mvaA; N-terminal 6xHis-tag (pET28a-rpHMGR(N)), codon-optimised synthetic gene, E. coli BL21(DE3), Ni-NTA purified; homodimer only by model
Assay: NADPH consumption followed at […] nm (reductive deacylation of HMG-CoA)
Assay type: biochemical
Conditions: 0.5 mM NADPH, 0.5 mM (R,S)-HMG-CoA, 50 mM Tris-HCl, 50 mM NaCl, 5 mM DTT, pH 7.5, 30 °C

T1 sequence (Q5LL64 entry or part of it D154K): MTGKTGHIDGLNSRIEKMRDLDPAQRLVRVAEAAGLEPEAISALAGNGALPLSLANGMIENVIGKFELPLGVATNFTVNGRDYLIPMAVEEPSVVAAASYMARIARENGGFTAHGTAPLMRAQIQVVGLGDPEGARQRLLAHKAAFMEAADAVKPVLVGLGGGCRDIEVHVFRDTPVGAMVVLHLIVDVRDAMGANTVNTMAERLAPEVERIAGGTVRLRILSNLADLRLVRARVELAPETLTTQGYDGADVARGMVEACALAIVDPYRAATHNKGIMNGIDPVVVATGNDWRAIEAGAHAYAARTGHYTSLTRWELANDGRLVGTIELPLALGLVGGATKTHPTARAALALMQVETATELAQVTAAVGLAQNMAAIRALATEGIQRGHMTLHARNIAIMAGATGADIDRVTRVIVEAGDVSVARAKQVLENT

Q: How did the specific activity turn out when `NC(=O)C1=CN([C@@H]2O[C@H](COP(=O)(O)OP(=O)(O)OC[C@H]3O[C@@H](n4cnc5c(N)ncnc54)[C@H](OP(=O)(O)O)[C@@H]3O)[C@@H](O)[C@H]2O)C=CC1` [NADPH] was run?
A: D154K mutant exhibited a significantly improved ability to utilize NADPH
